Data reported in PMC7077720, “Improvement of Peptide Affinity and Stability by Complexing to Cyclodextrin-Grafted Ammonium Chitosan” (Polymers, 2020).
Where a SMILES comes first, the peptide text is derived from it. [ ]: non-standard residue; d: D form.

Legend:
[1] = molecular target: T1, α-chymotrypsin (CHT) (Bos taurus, UniProt P00766); assay: Stability under enzymatic hydrolysis by α-chymotrypsin, residual DAL by HPLC; assay type: in vitro ADME; conditions: 37 °C
T1 construct: purchased Sigma-Aldrich (St. Louis, MO, USA)
Description: GPC (Gel permeation chromatography) and HPLC analyses were carried out with a Perkin-Elmer instrument (Perkin-Elmer, Waltham, MA, USA), consisting of a Series 200 LC-290 AT pump, Rheodyne injector with a loop of 20 μL, UV-VIS SPD–6 AV detector, and Turbochrom Navigator software (Turbochrom 6.1, Perkin-Elmer, Waltham, MA, USA ). For GPC analyses, the standard pullulans were employed; the stationary phase was an X-stream H2O Mixed Bed 50 × 4.6 mm column, the mobile phase was acetate buffer 0.5 M (pH = 2.9), and the wavelength of the detector was set to 237 nm. For HPLC, the suitable mobile phase result was H2O:CH3CN = 70:30, the column was a C18 Aquapore OD-300 (Perkin-Elmer, Waltham, MA, USA) 7 µm 4.6 × 250 mm, and the wavelength of the detector was set to 227 nm.
Stock solutions of dalargin (1 mg/mL) either alone or as a 1:1 complex with MCD or polymers were mixed with α-chymotrypsin (0.36 mg/mL) solutions to obtain 0.50 mg/mL and 0.18 mg/mL (corresponding to 7.2 UI/mL) final concentrations, respectively. […] All samples were analyzed after 5 min by interrupting the digestion with temperature shock (4 °C) and extensive dilution (1:20 with cold HPLC mobile phase). Residual DAL was expressed as the percentage of initial DAL as detected by the HPLC method. […]

[2] = Stability of pure DAL in water by 1H NMR; assay type: physicochemical; conditions: 37 °C, several days, 1H NMR chemical shifts and integrated areas
[3] = molecular target: T1, α-chymotrypsin (CHT); assay: Enzymatic hydrolysis of DAL by α-chymotrypsin followed by 1H NMR; assay type: in vitro ADME
Description: The same DAL/enzyme ratio and concentrations of components selected for HPLC were used in NMR analysis at 37 °C through the entire digestion process. DAL and α-chymotrypsin stock solutions were prepared in phosphate buffer (pH = 6.8) and mixed directly into the NMR tube containing predissolved polymers at 40 °C for 2 h.
By using the same DAL/CHT molar ratio selected for HPLC analysis, low and high frequency NMR spectral regions of dalargin, pure (Figure 7a) and in presence of CHT (Figure 7b, c), were monitored over time at 37 °C. In the binary mixture DAL/CHT, a rapid decrease of the original dalargin signals was observed already after 5 min with the simultaneous formation of new peaks, which was attributable to the digestion products. […] In order to obtain a quantitative parameter, we refer to the lifetime of the drug (tf), the specific time in which non-degraded DAL reached 6% with respect to the hydrolyzed products. If the mixture is maintained at room temperature (25 °C), the tf of DAL is extended up to 45 min, owing to a reduced activity of the enzyme.

[4] = tested on: Caco-2 monolayers; assay: In vitro protection from enzymatic degradation on Caco-2 monolayers; assay type: in vitro ADME, human; conditions: DAL 50 μg/mL applied apically in HBSS, 37 °C, HPLC, three experiments
Description: A Caco-2 monolayer was obtained by cell seeding (10^5 cells/well) on a polycarbonate membrane filter (pore size 0.4 μm, area 1.12 cm^2) in Corning Transwell, 12-well plates (Sigma-Aldrich, Saint Louis, MO, USA). Thereafter, 0.5 and 1.5 mL of culture medium was added to apical and basolateral compartments of the transwell inserts, respectively; the culture medium was replaced every two days for 24 days. As a rule, the experiments were performed with Caco-2 monolayers that have been grown on filter inserts for 21–29 days. By day 21, the monolayers have become differentiated with regard to the expression of many transport proteins, enzymes, and brush border hydrolases. The TransEpithelial Electrical Resistance (TEER, Ωcm^2) across the Caco-2 monolayer was determined by measuring the potential difference between the apical and basolateral sides of the transwell using the Millicell-ERS (Millipore, Milano, Italy). TEER was measured prior to each experiment to ensure the confluence of the monolayers, during transport studies (every 30 min), and at 24 h from the samples’ removal to assess monolayer stability recovery. Experiments were performed by using DAL-containing samples, which had either DAL alone or the presence of polymers and cyclodextrin. […] At the end of the experiment (3 h), the apical chambers media were collected and analyzed by HPLC for DAL content evaluation.

[5] = Complex association constant (Benesi–Hildebrand method), fluorescence spectrometry; assay type: binding; conditions: rounded value quoted in text; technique not named at the place
Description: Complex association constant (Ka) was determined by spectrometric titration based on the Benesi–Hildebrand method and performed both by UV-VIS and fluorescence spectrometry. Two sets of dilutions were prepared (Tables S2–S5, Supplementary material). In the case of UV spectrometry, 275 μM DAL was kept, whereas MCD concentrations varied, either as MCD alone or as conjugated (N^+-rCh-MCD). The solutions were prepared and analyzed after being equilibrated for 1 h at room temperature. UV spectra in the range 220–325 nm were collected, and the intensity of absorbance at 282 nm was normalized on the correspondent value at 247 nm. Diversely, for fluorescence spectroscopy evaluations, DAL concentration was kept at 70 μM, and samples were analyzed by using a PerkinElmer LS 45 fluorimeter, with excitation λ set at 270 nm and the emission spectrum collected between 340 and 270 nm. The variation of fluorescence intensity was evaluated at 304 nm, and it was normalized on 285 nm. […]
The determination of the association constant (Ka) for complexes of DAL/MCD and of DAL/N^+-rCh-MCD was performed both by UV and fluorescence spectrometry. Both techniques exploited the gradual variation of DAL absorbance or fluorescence in the presence of increasing amounts of host agent. […]

CC(C)C[C@H](NC(=O)[C@H](Cc1ccccc1)NC(=O)CNC(=O)[C@@H](C)NC(=O)[C@@H](N)Cc1ccc(O)cc1)C(=O)N[C@@H](CCCNC(=N)N)C(=O)O [DAL, (D-Ala2)-Leu-Enkephalin-Arg] (H-Y[dA]GFLR-OH)
reduction of the initial DAL content after 5 min of α-chymotrypsin ([1]; freshly prepared solutions, DAL 0.50 mg/mL alone or 1:1 with host, CHT 0.18 mg/mL (7.2 UI/mL), phosphate buffer pH 6.8, 0.4 M, HPLC-UV 227 nm, three independent experiments): 80% | stability of DAL to α-chymotrypsin, lyophilized samples redispersed in buffer ([1]; lyophilized DAL alone or 1:1 complex redispersed in PB, CHT 0.18 mg/mL, pH 6.8, 5 min, HPLC): rapidly degraded | stability of pure DAL in water [2]: stable | lifetime of the drug tf at room temperature ([3]; DAL/CHT mixture kept at 25 °C, tf = time at which non-degraded DAL reached 6%, 1H NMR): 45 min | time after which digestion was almost complete ([3]; binary mixture DAL/CHT, no host, 1H NMR integrated areas, 37 °C, phosphate buffer pH 6.8, DAL 0.68 mM): 14 min | DAL content in the apical chamber after 3 h of incubation ([4]; Caco-2 monolayers (Transwell, 21–29 days)): 4.1 to 7.3 µg/mL | residual DAL in the apical chamber after 3 h of incubation ([4]; Caco-2 monolayers): 8%–15%

2-methyl-β-cyclodextrin [MCD]
Association constant of DAL with host (Ka) [5]: 120 M⁻¹
